Literature values in patent publication US8945534B2, “Controlled activation of the reuterin-production machinery of Lactobacillus” (priority 2008, dated 2015).

Test system: Escherichia, Salmonella, Shigella, Proteus, Pseudomonas, Clostridium, Staphylococcus, Streptococcus, and Helicobacter pylori; several fungi and other …
Conditions: species representing all bacterial genera tested thus far; U.S. Pat. Nos. 5,439,678 etc.

O=CCCO [Reuterin, 3-hydroxypropionaldehyde]
inhibition of growth of microorganisms: capable of inhibiting growth
